# Test results published in US5232928A, “Tetrahydroisoquinoline amides” (Boehringer Ingelheim Pharmaceuticals, Inc., priority 1991, dated 1993).
# pIC50: −log10 of the molar value. Like-named read-outs stand apart in the source and are kept apart here. Where a SMILES comes first, the peptide text is derived from it. [ ]: non-standard residue; d: D form. The star is where a group is joined. ξ: configuration not given here. ξTic = O=C(O)C1Cc2ccccc2CN1; Cbz = O=C(OCc1ccccc1)*; ξV = CC(C)C(N)C(=O)O; CF3 = FC(F)(F)*
# Assays:
# Type in all cases: biochemical
# Human Leukocyte Elastase = molecular target: T1, Human Leukocyte Elastase (Homo sapiens, UniProt P08246); assay: Elastase inhibition in vitro, MeO-Suc-Ala-Ala-Pro-Val-pNA hydrolysis (human sputum elastase)
# T1 construct: purchased Elasten Products Co., Pacific, Mo; host or cells: human sputum
# T1 sequence (P08246 30-247 limits assumed): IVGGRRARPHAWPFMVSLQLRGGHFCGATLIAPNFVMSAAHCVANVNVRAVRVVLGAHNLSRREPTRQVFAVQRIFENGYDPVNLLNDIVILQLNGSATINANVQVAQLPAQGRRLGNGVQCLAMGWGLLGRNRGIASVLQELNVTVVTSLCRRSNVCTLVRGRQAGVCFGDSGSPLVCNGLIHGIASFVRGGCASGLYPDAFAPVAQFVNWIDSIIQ
# Source text: The method of K. Nakajima et al., Journal of Biological Chemistry, 254: 4027-4032 was adapted to a microtiter format. The in vitro assay is based upon the hydrolysis of the commercially available (Sigma Chemical Company, St. Louis, Mo.) substrate methoxy O-succinyl-L-alanyl-L-alanyl-L-prolyl-L-valine para - nitroanilide (MeO-Suc-Ala-Ala-Pro-Val-pNA) and the release of para-nitroanilide (pNA), which absorbs at 405 nm.
# b. Vmax Kinetic Microtiter Plate Reader, equipped with 405 nm filter (Molecular Devices)
# a. Human sputum elastase (HSE) (Elasten Products Co., Pacific, Mo.) dissolved 1 mg/mL in 0.05M sodium chloride and frozen (50 μL aliquots) at -20° C. until used.
# b. Stock solution of MeO-Suc-Ala-Ala-Pro-Val-pNA dissolved at 15 mM in dimethylsulfoxide (DMSO) and frozen (4 mL aliquots) at -20° C. until used.
# c. Assay buffer: 0.1M tris buffer, pH 7.5 containing 0.5M sodium choloride.
# Screening is performed in microtiter plates, using 0.5 mM substrate and monitored on a Microtiter Reader. Enzyme activity (+/- test compound) is determined as the rate of pNA release (linear regression analysis of slope). Inhibitory activity of the test compound is calculated relative to the uninhibited enzyme control, as follows: [formula]
# A frozen aliquot of HSE is thawed and diluted with assay buffer to a stock concentration of 0.02 mg/mL (30×assay concentration). […]
# Chymotrypsin = Chymotrypsin (Bos taurus, UniProt P00766); assay: Selectivity assay: chymotrypsin; conditions: selectivity table
# Urokinase = Urokinase (Homo sapiens, UniProt P00749); assay: Selectivity assay: urokinase; conditions: selectivity table
# Human C1 Esterase = molecular target: T2, Human C1 Esterase (Homo sapiens, UniProt P09871); assay: Selectivity assay: human C1 esterase; conditions: selectivity table
# T2 sequence (P09871 438-688 limits assumed): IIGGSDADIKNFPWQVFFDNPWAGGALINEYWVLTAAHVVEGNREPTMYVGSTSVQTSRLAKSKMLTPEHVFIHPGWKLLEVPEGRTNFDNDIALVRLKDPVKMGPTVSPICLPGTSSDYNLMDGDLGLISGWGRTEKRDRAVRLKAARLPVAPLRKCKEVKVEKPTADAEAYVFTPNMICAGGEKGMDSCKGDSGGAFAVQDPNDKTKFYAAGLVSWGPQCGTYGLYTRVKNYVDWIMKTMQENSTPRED
# T2 sequence (P09871 16-437 partner limits assumed): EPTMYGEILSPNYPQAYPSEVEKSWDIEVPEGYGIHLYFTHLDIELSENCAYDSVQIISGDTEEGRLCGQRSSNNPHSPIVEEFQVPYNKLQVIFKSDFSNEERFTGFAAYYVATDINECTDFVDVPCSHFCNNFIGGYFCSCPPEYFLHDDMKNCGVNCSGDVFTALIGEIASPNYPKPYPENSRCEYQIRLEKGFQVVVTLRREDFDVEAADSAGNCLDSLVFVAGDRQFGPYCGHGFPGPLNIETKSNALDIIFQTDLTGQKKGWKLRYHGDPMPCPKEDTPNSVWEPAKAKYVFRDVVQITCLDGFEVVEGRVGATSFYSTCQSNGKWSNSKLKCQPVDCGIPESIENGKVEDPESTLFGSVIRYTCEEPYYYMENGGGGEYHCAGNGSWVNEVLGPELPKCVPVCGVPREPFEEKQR
# Plasmin = Plasmin (Homo sapiens, UniProt P00747); assay: Selectivity assay: plasmin; conditions: selectivity table
# Recombitant HIV Protease = molecular target: T3, Recombitant HIV Protease (Human immunodeficiency virus type 1 group M subtype B, UniProt P04585); assay: Selectivity assay: recombinant HIV protease; conditions: selectivity table
# T3 construct: Recombitant HIV Protease
# Cathepsin B = Cathepsin B (Homo sapiens, UniProt P07858); assay: Selectivity assay: cathepsin B; conditions: selectivity table
# Thrombin = Thrombin (Homo sapiens, UniProt P00734); assay: Selectivity assay: thrombin; conditions: selectivity table
# [1] = molecular target: Recombitant 3C - Proteinase; assay: Selectivity assay: recombinant 3C-proteinase; conditions: selectivity table
# Chain of Plasmin (P00747 581-810 limits assumed, species assumed): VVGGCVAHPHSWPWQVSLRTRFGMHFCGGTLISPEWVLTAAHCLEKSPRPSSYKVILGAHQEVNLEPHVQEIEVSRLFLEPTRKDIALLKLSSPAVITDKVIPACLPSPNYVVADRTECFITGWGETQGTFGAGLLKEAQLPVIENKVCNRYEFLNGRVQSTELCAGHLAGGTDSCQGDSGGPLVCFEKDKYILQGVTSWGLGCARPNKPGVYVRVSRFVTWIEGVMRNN
# Chain of Plasmin (P00747 97-580 partner limits assumed, species assumed): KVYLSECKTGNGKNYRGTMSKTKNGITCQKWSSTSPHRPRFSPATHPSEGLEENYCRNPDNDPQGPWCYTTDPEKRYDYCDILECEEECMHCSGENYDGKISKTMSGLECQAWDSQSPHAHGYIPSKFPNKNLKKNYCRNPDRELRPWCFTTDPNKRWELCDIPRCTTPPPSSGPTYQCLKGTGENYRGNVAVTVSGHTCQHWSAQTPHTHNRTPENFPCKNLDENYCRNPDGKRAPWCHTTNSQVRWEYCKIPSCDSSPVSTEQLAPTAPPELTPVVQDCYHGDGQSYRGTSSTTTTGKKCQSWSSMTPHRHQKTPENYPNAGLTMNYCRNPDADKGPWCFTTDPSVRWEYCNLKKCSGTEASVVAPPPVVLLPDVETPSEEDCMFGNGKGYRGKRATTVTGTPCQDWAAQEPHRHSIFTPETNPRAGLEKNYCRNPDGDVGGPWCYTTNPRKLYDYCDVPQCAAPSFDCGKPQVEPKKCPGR
SMILES,"pIC50 (Human Leukocyte Elastase; Table I, in vitro inhibition, 0.5 mM substrate, pH 7.5, read-out: In Vitro IC50)","IC50 (Human Leukocyte Elastase; selectivity table, Human Leukocyte Elastase)",pIC50 (Chymotrypsin),pIC50 (Urokinase),pIC50 (Human C1 Esterase),pIC50 (Plasmin),pIC50 (Recombitant HIV Protease),pIC50 (Cathepsin B),pIC50 (Thrombin),IC50 [1]
CC(C)C(NC(=O)C1Cc2ccccc2CN1C(=O)[C@@H](NC(=O)OCc1ccccc1)C(C)C)C(=O)C(F)(F)F (stereo partly drawn) [CBZ] (Cbz-Val-[ξTic]-[ξV]-CF3),> 4.75,,,,,,,,,
"CC(C)C(NC(=O)C1Cc2ccccc2CN1C(=O)[C@@H](NC(=O)c1ccc(C(=O)NS(=O)(=O)c2ccc(Cl)cc2)cc1)C(C)C)C(=O)C(F)(F)F (stereo partly drawn) [p-[p-Cl(C6 H4)SO2 NHCO](C6 H4)CO, [[4-(4-Chlorophenyl)sulfonylaminocarbonyl]phenyl-1-oxomethyl]-L-valyl-N-[3-(1,1,1-trifluoro-4-methyl-2-oxopentyl)]-1,2,3,4-tetrahydro-3-isoquinoline-carboxamide]",,0.082 µg/mL,< 5.10,< 5.10,< 5.10,< 5.10,< 4.18,< 5.10,< 5.10,> 50 µg/mL
